{"source": "patent US20220118159A1", "about": "“ANTIOXIDANT-RELEASING VITREOUS SUBSTITUTES AND USES THEREOF” (Ohio State Innovation Foundation, priority 2019, published 2022)", "key": {"LEC [1]": {"test_system": "LEC", "assay": "CellTiter-Glo luminescent cell viability assay", "method": "(§1) Cell Viability and ROS Activity Assays. ARPE-19 and LEC were seeded in 96-well plates at 1×10^4 cells per well in DMEM/F-12 and DMEM, respectively, supplemented with 10% FCS and 1% Pen Strep for 24 h at 37° C. in 5% CO2 humidified atmosphere. The hydrogels were submerged in 70% ethanol for 1 hour to sterilize, rinsed with deionized water 3 times for 1 hour each to remove the residual ethanol, and mixed well with serum-free and phenol red-free DMEM at a hydrogel concentration of 10% w/v (J. Chang, et al., J Mater Chem B. 2015, 3, 1097-1105; Y. Tao, et al., Acta Biomater. 2013, 9, 5022-5030; M. Annaka, et al., Biomacromolecules. 2011, 12, 4011-4021; and S. Lamponi, et al., J. Biomater. Sci. Polym. Ed. 2012, 23, 555-575). The culture medium in each well was removed and medium (100 μL) with/without hydrogel and with/without vitamin C (2.2 mM) was added to each well and incubated for 24 hours. Hydrogen peroxide (10 200 μM final concentration) was added to half of the wells, and DPBS (10 μL) was added to the remaining wells as a control (A. Heckelen, et al., Acta Ophthalmol Scand. 2004, 82, 564-568; and H. S. Lee, et al., Invest. Ophthalmol. Vis. Sci. 2017, 58, 1196-1207). The well plates were incubated for 30 minutes. CellTiter-Glo luminescent cell viability assay was conducted according to the manufacturer's protocol. Briefly, the well plates were equilibrated to room temperature for 30 minutes. CellTiter-Glo Reagent (100 μL) was added to each well, and the contents were mixed for 10 minutes using an orbital shaker. The well plates were incubated at room temperature for 10 minutes before the luminescent signal was measured using the Synergy HT multi-mode microplate reader. ROS activity was detected using DCF. Briefly, DCF (100 20 μM final concentration) was added to each well, and the contents were incubated at room temperature for 30 minutes (Y. Ou, et al., Chem Biol Interact. 2009, 179, 103-109). The fluorescence signal was measured with excitation and emission wavelengths of 485 and 525 nm, respectively, using a TECAN M200 Plate Reader (Männedorf, Switzerland).\n(§2) Screening of Hydrogen Peroxide, Vitamin C, and Glutathione Concentrations Using a Cell Viability Assay: ARPE-19 and LEC were seeded in 96-well plates at 1×10^4 cells per well in DMEM/F-12 and DMEM, respectively, supplemented with 10% FCS and 1% Pen Strep for 24 h at 37° C. in 5% CO2 humidified atmosphere. The culture medium in each well was removed and various media with vitamin C (2000 μM, 1000 μM, 500 μM, 100 μM, and 0 μM) or glutathione (10000 μM, 4000 μM, 2000 μM, 1000 μM, 500 μM, and 0 μM) was added to each well (100 μL) and incubated for 24 hours. Hydrogen peroxide (600 μM, 400 μM, 200 μM, 100 μM, 50 μM, and 0 μM) and a special case of vitamin C (2000 μM) was added (100 μL) 30 minutes before performing the viability assays. CellTiter-Glo luminescent cell viability assay was conducted according to the manufacturer's protocol. Briefly, the well plates were equilibrated to room temperature for 30 minutes. CellTiter-Glo Reagent (100 μL) was added to each well, and the contents were mixed for 10 minutes using an orbital shaker."}, "ARPE-19 [2]": {"test_system": "ARPE-19", "assay": "CellTiter-Glo luminescent cell viability assay", "method": "as §1, §2"}, "LEC [3]": {"test_system": "LEC", "assay": "ROS activity, DCF assay", "format": "cell-based, human", "method": "(§3) Cell Viability and ROS Activity Assays. […] The well plates were incubated for 30 minutes. […] ROS activity was detected using DCF. […] The fluorescence signal was measured with excitation and emission wavelengths of 485 and 525 nm, respectively, using a TECAN M200 Plate Reader (Männedorf, Switzerland).\n(§4) Antioxidant Activity of Vitamin C in Reducing Reactive Oxygen Species (ROS) Activity Using DCF Assay: The ROS activity induced by hydrogen peroxide (200 μM for 30 minutes) of ARPE-19 and LEC treated with vitamin C (0, 100, and 1000 μM for 30 minutes or 24 hours) was determined using dichlorofluorescein assay. Briefly, LEC and ARPE-19 cells were cultured as aforementioned."}, "ARPE-19 [4]": {"test_system": "ARPE-19", "assay": "ROS activity, DCF assay", "format": "cell-based, human", "method": "as §3, §4"}, "[5]": {"details": "2 mM", "protocol": "(§5) Chitosan (Sigma-Aldrich, low molecular weight, 1 mg/ml) was dissolved in acetic acid solution (1% w/w, 500 ml) for 60 min at 500 rpm. Sodium tripolyphosphate (1.75 mg/ml, 500 ml) was added dropwise into the chitosan solution to form nanoparticles over 2 hours. The nanoparticles were collected by centrifugation at 4000 rpm for 15 min at 21° C. The particles were washed with deionized water and again centrifuged. Vitamin C (10% w/w, 10 ml, pH 5.5) was added to the particles and equilibrated for 18 hours on an orbital shaker. Sodium alginate (FMC BioPolymer, Protanal PH, 1 mg/ml, 10 ml, pH 5.5) was added to the vitamin C and chitosan particle solution and sonicated for 30 min. Chitosan (Sigma-Aldrich, low molecular weight, 1 mg/ml in 1% w/w acetic acid solution, 10 ml) or gelatin (bloom 175, 1 mg/ml, 10 ml) was added to the vitamin c-chitosan-alginate particles and sonicated for 30 min. The particles were collected by centrifugation at 4000 rpm for 15 min at 21° C. and freeze dried. […] Concentration of vitamin C versus time was determined using methods as described elsewhere in the Examples.\n(§6) Either the particle solutions or the chemically-stabilized Vitamin C solutions were incubated in the hydrogels at 37° C.\n(§7) For each solution tested, a control group with no vitamin C and a test group with vitamin C (1% w/w) alone in DPBS were included. […] All solutions were kept at 37° C. throughout the release studies. The amount of viable vitamin C remaining in the solutions was measured using a Synergy HT multi-mode microplate reader (BioTek, Winooski, Vt.) at wavelength 265 nm and compared to the control groups to determine the amount of viable vitamin C left in the solutions. To measure the concentration of vitamin C, solutions with particles were centrifuged at 3220 rpm for 5 min and solution (500 uL) was removed and placed into a 96-well plate measured on days 0, 1, 2, 3, 4, 7, 8, 9, 10, 11, and 14. After two weeks, solutions with higher concentrations of vitamin C were measured every other day until vitamin C was undetectable. For the particle solutions, DPBS solutions (500 uL) was added back into the solution to maintain a constant volume."}, "[6]": {"assay": "Sodium ascorbate degradation and release from polyacrylamide hydrogels", "format": "physicochemical", "details": "PBS, lag time about 36 hours after making", "method": "The 2 mM sodium ascorbate solutions in PBS, which was diluted 20× before measurement as previously described, show an exponential-like decay in concentration over time (note that the y-axis is plotted on a log scale). Additionally, its concentration at time 0 was 1.4 mM, not 2 mM as made, since there was a lag time between when the solutions were made and when the experiment started. This lag time (about 36 hours) was due to the delayed gelation time of polyacrylamide hydrogels. The polymer solutions with sodium ascorbate gelled within 18 hours. However, the polymer solutions without sodium ascorbate took twice as long to gel.\nThe gelled polyacrylamide hydrogels (1 ml) with or without sodium ascorbate were submerged in 10 ml of PBS. […] The 1 ml aliquots were measured without dilution, since the sodium ascorbate concentrations were already within the linear region of the standard curve.\nThe absorbance readings of the hydrogels without sodium ascorbate increase with time. Since there was no sodium ascorbate added to these hydrogels, the increase in absorbance could be due to the small pieces of polymer leached out from the hydrogel causing UV light interference. […] The absorbance readings of hydrogels without sodium ascorbate can be subtracted from the ones with sodium ascorbate to obtain the true absorbance reading due to the varying concentrations of sodium ascorbate."}, "[7]": {"assay": "Vitamin C remaining (stability) study, absorbance at 265 nm", "protocol": "as §5, §6, §7"}, "[8]": {"details": "Example 7: hydrogen peroxide 200 μM final, 30 minutes, vs non-treated"}, "[9]": {"details": "H2O2 200 μM and 400 μM, 30 minutes"}, "[10]": {"details": "hydrogen peroxide 600 μM, 30 minutes"}, "[11]": {"details": "hydrogen peroxide at or below 100 μM, 30 minutes"}, "[12]": {"details": "hydrogen peroxide 200 μM, 30 minutes, compared to control"}, "[13]": {"details": "vitamin C 100 μM for 24 hours, H2O2 200 μM"}, "[14]": {"details": "vitamin C 100 μM, after 24 hours, not treated with H2O2"}, "[15]": {"details": "vitamin C 100 and 1000 μM for 30 minutes"}, "[16]": {"details": "glutathione, all tested conditions up to 10000 μM, 24 hours"}}, "note": "Entries after “also recorded” stand apart in the source; their conditions may differ. Like-named read-outs stand apart in the source and are kept apart here."}
{"smiles": "OO", "note": "[Hydrogen peroxide, hydrogen peroxide]", "values": [{"measurement": "cell viability", "setting": "LEC [1]; [8]", "result": "statistically lower"}, {"measurement": "cell viability", "setting": "LEC [1]; [9]", "result": "significantly decreased the cell viability"}, {"measurement": "cell viability", "setting": "LEC [1]; [10]", "result": "significantly decreased cell viability"}, {"measurement": "cell viability", "setting": "LEC [1]; [11]", "result": "did not affect cell viability"}, {"measurement": "cell viability", "setting": "ARPE-19 [2]; [8]", "result": "approximately the same or even higher"}, {"measurement": "cell viability", "setting": "ARPE-19 [2]; [9]", "result": "had no effect"}, {"measurement": "cell viability", "setting": "ARPE-19 [2]; [10]", "result": "significantly decreased cell viability"}, {"measurement": "cell viability", "setting": "ARPE-19 [2]; [11]", "result": "did not affect cell viability"}, {"measurement": "increase in ROS activity", "setting": "LEC [3]; hydrogen peroxide 200 μM", "result": 1.5, "unit": "times"}, {"measurement": "ROS activity", "setting": "LEC [3]; [12]", "result": "increased"}, {"measurement": "ROS activity", "setting": "ARPE-19 [4]; [12]", "result": "did not affect; also recorded: did not significantly respond"}]}
{"smiles": "O=C1O[C@H]([C@@H](O)CO)C(O)=C1O", "note": "[Vitamin C, ascorbic acid]", "values": [{"measurement": "reduction of ROS induced by hydrogen peroxide", "setting": "LEC [3]; [13]", "result": "not effective"}, {"measurement": "ROS activity", "setting": "LEC [3]; [14]", "result": "returned to the same level as the control"}, {"measurement": "ROS activity", "setting": "LEC [3]; vitamin C 1000 μM for 24 hours with H2O2", "result": "the same ROS activity as the no H2O2 no vitamin C control"}, {"measurement": "ROS activity", "setting": "LEC [3]; [15]", "result": "15-30%"}, {"measurement": "reduction of ROS induced by hydrogen peroxide", "setting": "ARPE-19 [4]; [13]", "result": "not effective"}, {"measurement": "ROS activity", "setting": "ARPE-19 [4]; [14]", "result": "returned to the same level as the control"}, {"measurement": "ROS activity", "setting": "ARPE-19 [4]; vitamin C 1000 μM for 24 hours", "result": "did not return to the normal control level"}, {"measurement": "ROS activity", "setting": "ARPE-19 [4]; [15]", "result": "15-30%"}, {"measurement": "vitamin C remaining", "setting": "[5]; 72 h", "result": 10, "unit": "%"}, {"measurement": "vitamin C remaining", "setting": "[5]; 5 days", "result": 0, "unit": "%"}]}
{"smiles": "O=C1O[C@H]([C@@H](O)CO)C([O-])=C1O.[Na+]", "note": "[sodium ascorbate]", "values": [{"measurement": "concentration of 2 mM sodium ascorbate solution at time 0", "setting": "[6]", "result": 1400, "unit": "µM"}]}
{"smiles": "N[C@@H](CCC(=O)N[C@@H](CS)C(=O)NCC(=O)O)C(=O)O", "note": "[Glutathione, glutathione]", "values": [{"measurement": "change of cell viability", "setting": "LEC [1]; glutathione 4000 μM and 10000", "result": "decreased"}, {"measurement": "cell viability", "setting": "LEC [1]; [16]", "result": "above 70%"}, {"measurement": "change of cell viability", "setting": "ARPE-19 [2]; glutathione concentration above 100 μM", "result": "increased"}, {"measurement": "cell viability", "setting": "ARPE-19 [2]; [16]", "result": "above 70%"}, {"measurement": "maintenance of vitamin C concentrations", "setting": "[7]; particles, presence of glutathione (FIGS. 18-19)", "result": "improved maintenance of vitamin C concentrations"}, {"measurement": "vitamin C remaining", "setting": "[7]; past 14 days, glutathione 4-10 mM (FIG. 25)", "result": "More than half"}]}
